Experimental data: patent US20230277533A1, “THERAPEUTIC COMBINATIONS COMPRISING UBIQUITIN-SPECIFIC-PROCESSING PROTEASE 1 (USP1) INHIBITORS AND POLY (ADP-RIBOSE) POLYMERASE (PARP) INHIBITORS” (KSQ Therapeutics, Inc., priority 2020, published 2023)
Like-named read-outs stand apart in the source and are kept apart here.

How the values were obtained:
Test in all cases: Colony formation (CFU) assay
Assay type in all cases: cell-based
[1] = test system: NCIH1299; conditions: Homo sapiens, NCI-H1299; NCIH1299, lung
Method in brief: (§1)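 Cells were plated in six-well plates at a density giving well-separated colonies after about 14 days, with medium containing DMSO, USP1 inhibitor, niraparib or olaparib refreshed on day 8. Colonies were stained with 0.1% crystal violet, the dye extracted into 10% acetic acid and read at 565 nm.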

[2] = test system: PK45H; conditions: pancreas
Method in brief: as §1

[3] = test system: AN3CA; conditions: Homo sapiens, AN3-CA, uterus
Method in brief: as §1

[4] = test system: 22RV1; conditions: Homo sapiens; 22RV1, prostate
Method in brief: as §1

[5] = test system: TCCSUP; conditions: Homo sapiens, TCC-SUP, bladder
Method in brief: as §1

[6] = test system: OV56; conditions: OV56, ovary
Method in brief: as §1

[7] = test system: U251MG; conditions: Homo sapiens, U-251, nervous system
Method in brief: as §1

[8] = test system: COV434; conditions: COV434, ovary
Method in brief: as §1

[9] = test system: CAPAN1; conditions: Homo sapiens, CAPAN-1; CAPAN1, pancreas
Method in brief: as §1

[10] = test system: JIMT1; conditions: Homo sapiens, JIMT-1; JIMT1, breast
Method in brief: as §1

[11] = test system: LU99; conditions: Homo sapiens, Lu-99; LU99, lung
Method in brief: as §1

[12] = test system: SNU1076; conditions: SNU1076, head and neck
Method in brief: as §1

[13] = test system: BICR6; conditions: BICR6, head and neck
Method in brief: as §1

[14] = test system: HT115
Method in brief: as §1

[15] = test system: RERFLCAI; conditions: lung
Method in brief: as §1

[16] = test system: RKO; conditions: Homo sapiens, colon
Method in brief: as §1

[17] = test system: HCC1954; conditions: Homo sapiens; HCC1954, breast
Method in brief: as §1

[18] = test system: DMS53; conditions: Homo sapiens, DMS-53; DMS53, lung
Method in brief: as §1

[19] = test system: NCIH1651; conditions: Homo sapiens, NCI-H1651; NCIH1651, lung
Method in brief: as §1

[20] = test system: BT474; conditions: Homo sapiens, BT-474; BT474, breast
Method in brief: as §1

[21] = test system: NCIH1915; conditions: NCI-H1915; NCIH1915, lung
Method in brief: as §1

[22] = test system: HBCx3; conditions: HBCx3, breast
Method in brief: as §1

[23] = test system: GOTO; conditions: nervous system
Method in brief: as §1

[24] = test system: YD38; conditions: YD38, head and neck
Method in brief: as §1

[25] = test system: ES2; conditions: Homo sapiens, ES-2; ES2, ovary
Method in brief: as §1

[26] = test system: VMRCRCW; conditions: kidney
Method in brief: as §1

[27] = test system: HCC1395; conditions: Homo sapiens; HCC1395, breast
Method in brief: as §1

[28] = test system: HUO9; conditions: HUO9, bone
Method in brief: as §1

[29] = test system: KM12; conditions: Homo sapiens; KM12, colon
Method in brief: as §1

[30] = test system: CFPAC1; conditions: Homo sapiens, CFPAC-1; CFPAC1, pancreas
Method in brief: as §1

[31] = test system: DOTC24510; conditions: Homo sapiens, DoTc2-4510; DOTC24510, cervix
Method in brief: as §1

[32] = test system: SNU1041; conditions: SNU1041, head and neck
Method in brief: as §1

[33] = test system: HT144; conditions: Homo sapiens, HT-144; HT144, skin
Method in brief: as §1

[34] = test system: SNUC5; conditions: SNUC5, colon
Method in brief: as §1

[35] = test system: A2058; conditions: Homo sapiens; A2058, skin
Method in brief: as §1

[36] = test system: SCC15; conditions: Homo sapiens, SCC-15; SCC15, head and neck
Method in brief: as §1

[37] = test system: SNU668; conditions: SNU668, stomach
Method in brief: as §1

[38] = test system: HBCx2; conditions: HBCx2, breast
Method in brief: as §1

Row | SMILES | IC50 [1] | IC50 [2] | IC50 [3] | IC50 [4] | IC50 [5] | IC50 [6] | IC50 [7] | IC50 [8] | IC50 [9] | IC50 [10] | IC50 [11] | IC50 [12] | IC50 [13] | IC50 [15] | IC50 [16] | IC50 [17] | IC50 [18] | IC50 [19] | IC50 [20] | IC50 [21] | other results
1 | COc1ncnc(C2CC2)c1-c1ncc2cnn(Cc3ccc(-c4nc(C(F)(F)F)cn4C)cc3)c2n1 [Formula II, 6-(4-cyclopropyl-6-methoxypyrimidin-5-yl)-1-(4-(1-methyl-4-(trifluoromethyl)-1H-imidazol-2-yl)benzyl)-1H-pyrazolo[3,4-d]pyrimidine] | > 300 nM | 294 nM | > 300 nM | > 300 nM | > 300 nM | > 300 nM | > 300 nM | > 300 nM | > 300 nM | 16.6 nM | 35.4 nM | > 300 nM | > 300 nM | > 300 nM | > 300 nM | > 300 nM | > 300 nM | 85.7 nM | > 300 nM | 52.2 nM | IC50 ([14]; HT115, colon, read-out: IC50): 150 nM; IC50 [22]: > 300 nM; IC50 [23]: > 300 nM; IC50 [24]: > 300 nM; IC50 [25]: 27.5 nM; IC50 [26]: > 300 nM; IC50 [27]: > 300 nM; IC50 [28]: > 300 nM; IC50 [29]: 220 nM; IC50 [30]: > 300 nM; IC50 [31]: > 300 nM; IC50 [32]: > 300 nM; IC50 [33]: 84.3 nM; IC50 [34]: > 300 nM; IC50 [35]: > 300 nM; IC50 [36]: 28 nM; IC50 [37]: > 300 nM; IC50 [38]: > 300 nM
2 | NC(=O)c1cccc2cn(-c3ccc([C@@H]4CCCNC4)cc3)nc12 [Niraparib, niraparib, reference compound] | > 300 nM | > 300 nM | 101 nM | > 300 nM | > 300 nM | > 300 nM | > 300 nM | 106 nM | 185 nM | 25.3 nM | 88.6 nM | > 300 nM | 149 nM | > 300 nM | > 300 nM | > 300 nM | 168 nM | 32.4 nM | > 300 nM | 66.2 nM | IC50 ([14]; HT115): 15.6 nM; IC50 [22]: 20.8 nM; IC50 [23]: 22.4 nM; IC50 [24]: > 300 nM; IC50 [25]: > 300 nM; IC50 [26]: > 300 nM; IC50 [27]: 8.26 nM; IC50 [28]: > 300 nM; IC50 [29]: 106 nM; IC50 [30]: > 300 nM; IC50 [31]: 30.4 nM; IC50 [32]: > 300 nM; IC50 [33]: 114 nM; IC50 [34]: 92.4 nM; IC50 [35]: 58.4 nM; IC50 [36]: > 300 nM; IC50 [37]: > 300 nM; IC50 [38]: > 300 nM
